Assays:
[1] = biological target: dopaminergic receptors D2 (Homo sapiens, UniProt P14416); experiment: Radioligand binding assay, dopaminergic D2 receptors; conditions: binding assay, test compound 1×10^−6 M
Description: (§1) The specific ligand binding to the receptors is defined as the difference between the total binding and the non-specific binding determined in the presence of the excess of unlabelled ligand.
(§2) The results are expressed as a percent of control specific binding ((measured specific binding/control specific binding)×100) and as a percent inhibition of control specific binding (100−((measured specific binding/control specific binding)×100)) obtained in the presence of the test compounds. The specific ligand binding to the receptors is defined as the difference between the total binding and the nonspecific binding determined in the presence of an excess of unlabelled ligand. Scintillation counting was the method of detection of ligand binding. The IC50 values (concentration causing a half-maximal inhibition of control specific binding) were determined by non-linear regression analysis of the competition curves generated with mean replicate values using Hill equation curve fitting (Y=D+[(A−D)/(1+(C/C50)nH)], where Y=specific binding, D=minimum specific binding, A=maximum specific binding, C=compound concentration, C50=IC50, and nH=slope factor). This analysis was performed using a software developed at Cerep (Hill software) and validated by comparison with data generated by the commercial software SigmaPlot® 4.0 for Windows® (© 1997 by SPSS Inc.). The inhibition constants (Ki) were calculated using the Cheng Prusoff equation (Ki=IC50/(1+(L/KD)), where L=concentration of radioligand in the assay, and KD=affinity of the radioligand for the receptor). A scatchard plot was used to determine the Kd.
(§3) Experimental conditions for tests are given in Table 1, the results of tests for representative compounds are given in Tables 2a and 2b (receptors D2 and D3) and in Table 3 (receptors D4).

[2] = biological target: dopaminergic receptors D3 (Homo sapiens, UniProt P35462); experiment: Radioligand binding assay, dopaminergic D3 receptors; conditions: test compound 1×10^−6 M
dopaminergic receptors D3, sequence (P35462 whole entry): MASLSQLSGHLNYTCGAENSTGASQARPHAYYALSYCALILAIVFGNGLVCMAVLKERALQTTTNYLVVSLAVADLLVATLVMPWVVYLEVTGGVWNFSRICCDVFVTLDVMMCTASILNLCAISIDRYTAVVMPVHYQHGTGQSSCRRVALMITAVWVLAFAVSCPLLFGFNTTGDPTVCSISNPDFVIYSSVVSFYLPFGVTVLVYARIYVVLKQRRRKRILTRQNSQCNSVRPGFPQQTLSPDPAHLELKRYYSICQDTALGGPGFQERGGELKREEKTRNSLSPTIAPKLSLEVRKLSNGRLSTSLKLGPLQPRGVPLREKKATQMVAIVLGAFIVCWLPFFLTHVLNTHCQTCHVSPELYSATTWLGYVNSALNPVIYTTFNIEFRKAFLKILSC
Description: as §1, §2, §3

[3] = biological target: T1, 5-HT1A receptor (rat hippocampus) (Rattus norvegicus, UniProt P19327); experiment: Radioligand binding assay, serotoninergic 5-HT1A receptors; conditions: binding assay result in %, Table 5a;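 note: test compound at 1 µM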
T1 construct: hippocampus; from tissue; host or cells: rat hippocampus
T1 sequence (P19327 1-422): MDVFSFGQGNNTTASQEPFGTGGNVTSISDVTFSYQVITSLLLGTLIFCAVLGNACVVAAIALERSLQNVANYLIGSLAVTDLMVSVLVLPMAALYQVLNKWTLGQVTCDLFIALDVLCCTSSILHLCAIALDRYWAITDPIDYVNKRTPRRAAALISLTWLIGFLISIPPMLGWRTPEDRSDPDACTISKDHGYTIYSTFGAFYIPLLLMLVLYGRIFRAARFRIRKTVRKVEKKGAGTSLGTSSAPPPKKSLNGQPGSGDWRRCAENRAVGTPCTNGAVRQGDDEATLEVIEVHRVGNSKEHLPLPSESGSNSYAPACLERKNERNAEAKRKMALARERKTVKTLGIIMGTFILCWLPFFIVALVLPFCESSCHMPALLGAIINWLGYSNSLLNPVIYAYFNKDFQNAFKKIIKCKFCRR
Description: as §1, §2
(§4) Experimental conditions for tests are given in Table 4, and results of tests for representative compounds of the invention are given in Table 5a and 5b (receptors 5-HT1A, 5-HT2A, 5-HT6 and 5-HT7) and in Table 6 (receptors 5-HT2C).

5-HT2A receptor = biological target: T2, 5-HT2A receptor (Homo sapiens, UniProt P28223); experiment: Radioligand binding assay, serotoninergic 5-HT2A receptors; conditions: binding assay result in %, Table 5a
T2 construct: purchased PerkinElmer
T2 sequence (P28223 whole entry): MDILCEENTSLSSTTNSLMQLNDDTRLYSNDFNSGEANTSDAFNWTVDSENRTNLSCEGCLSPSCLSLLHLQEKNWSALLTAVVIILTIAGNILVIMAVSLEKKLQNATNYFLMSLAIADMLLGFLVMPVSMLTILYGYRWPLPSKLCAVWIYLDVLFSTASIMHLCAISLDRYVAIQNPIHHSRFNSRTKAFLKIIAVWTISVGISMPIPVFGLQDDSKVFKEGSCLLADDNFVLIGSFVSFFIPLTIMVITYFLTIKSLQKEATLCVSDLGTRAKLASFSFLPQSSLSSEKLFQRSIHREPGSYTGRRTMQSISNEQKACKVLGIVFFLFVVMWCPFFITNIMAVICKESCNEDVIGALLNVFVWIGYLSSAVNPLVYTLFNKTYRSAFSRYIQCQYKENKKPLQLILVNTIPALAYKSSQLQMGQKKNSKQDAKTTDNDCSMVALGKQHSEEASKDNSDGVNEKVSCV
Description: as §1, §2
5-HT2A: Bryan L. Roth. Assay Protocol Book. University of North Carolina At Chapel Hill. National Institute of Mental Health. Psychoactive Drug Screening Program. Available on-line at 31 Aug. 2008: http://pdsp.med.unc.edu/UNC-CH%20Protocol%20Book.pdf

5-HT6 receptor = biological target: T3, 5-HT6 receptor (Homo sapiens, UniProt P50406); experiment: Radioligand binding assay, serotoninergic 5-HT6 receptors; conditions: binding assay result in %, Table 5a;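 note: test compound at 1 µM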
T3 construct: purchased PerkinElmer
T3 sequence (P50406 whole entry): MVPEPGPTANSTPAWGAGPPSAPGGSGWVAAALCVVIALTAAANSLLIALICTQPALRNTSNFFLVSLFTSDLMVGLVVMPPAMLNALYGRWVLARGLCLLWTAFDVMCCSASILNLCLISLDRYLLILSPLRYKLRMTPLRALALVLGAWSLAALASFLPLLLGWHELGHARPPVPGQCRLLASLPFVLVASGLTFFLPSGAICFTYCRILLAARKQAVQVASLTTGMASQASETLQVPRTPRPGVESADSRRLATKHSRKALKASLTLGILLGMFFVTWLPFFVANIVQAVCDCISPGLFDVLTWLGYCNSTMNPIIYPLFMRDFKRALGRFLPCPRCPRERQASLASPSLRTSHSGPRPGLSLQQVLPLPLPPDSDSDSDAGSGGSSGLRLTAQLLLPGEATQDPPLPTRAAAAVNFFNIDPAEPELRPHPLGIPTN
Description: as §1, §2, §4
5-HT6: Bryan L. Roth. Assay Protocol Book. University of North Carolina At Chapel Hill. National Institute of Mental Health. Psychoactive Drug Screening Program. Available on-line at 31 Aug. 2008: http://pdsp.med.unc.edu/UNC-CH %20Protocol%20Book.pdf

5-HT7 receptor = biological target: T4, 5-HT7 receptor (Homo sapiens, UniProt P34969); experiment: Radioligand binding assay, serotoninergic 5-HT7 receptors; conditions: binding assay result in %, Table 5a;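 note: test compound at 1 µM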
T4 construct: purchased PerkinElmer
T4 sequence (P34969 whole entry): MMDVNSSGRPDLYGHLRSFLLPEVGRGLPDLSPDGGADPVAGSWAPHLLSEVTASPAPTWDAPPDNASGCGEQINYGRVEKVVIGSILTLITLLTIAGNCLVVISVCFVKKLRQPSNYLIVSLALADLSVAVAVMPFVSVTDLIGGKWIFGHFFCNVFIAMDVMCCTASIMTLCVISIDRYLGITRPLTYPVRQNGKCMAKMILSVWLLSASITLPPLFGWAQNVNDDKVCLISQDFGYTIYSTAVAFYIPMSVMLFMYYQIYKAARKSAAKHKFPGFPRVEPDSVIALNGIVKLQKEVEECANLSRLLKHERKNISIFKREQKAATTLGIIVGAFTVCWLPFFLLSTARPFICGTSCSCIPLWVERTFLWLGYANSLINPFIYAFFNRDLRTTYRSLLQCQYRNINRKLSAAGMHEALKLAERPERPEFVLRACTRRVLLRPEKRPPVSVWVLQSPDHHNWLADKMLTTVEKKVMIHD
Description: as §1, §2, §4
5-HT7: Bryan L. Roth. Assay Protocol Book. University of North Carolina At Chapel Hill. National Institute of Mental Health. Psychoactive Drug Screening Program. Available on-line at 31 Aug. 2008: http://pdsp.med.unc.edu/UNC-CH %20Protocol%20Book.pdf

[4] = biological target: T5, serotonin transporter (SERT) (Homo sapiens, UniProt P31645); experiment: Radioligand binding assay, serotonin transporter (SERT); conditions: binding assay, test compound 1×10^−6 M
T5 construct: expressed in transfected cells; host or cells: CHO cells
T5 sequence (P31645 whole entry): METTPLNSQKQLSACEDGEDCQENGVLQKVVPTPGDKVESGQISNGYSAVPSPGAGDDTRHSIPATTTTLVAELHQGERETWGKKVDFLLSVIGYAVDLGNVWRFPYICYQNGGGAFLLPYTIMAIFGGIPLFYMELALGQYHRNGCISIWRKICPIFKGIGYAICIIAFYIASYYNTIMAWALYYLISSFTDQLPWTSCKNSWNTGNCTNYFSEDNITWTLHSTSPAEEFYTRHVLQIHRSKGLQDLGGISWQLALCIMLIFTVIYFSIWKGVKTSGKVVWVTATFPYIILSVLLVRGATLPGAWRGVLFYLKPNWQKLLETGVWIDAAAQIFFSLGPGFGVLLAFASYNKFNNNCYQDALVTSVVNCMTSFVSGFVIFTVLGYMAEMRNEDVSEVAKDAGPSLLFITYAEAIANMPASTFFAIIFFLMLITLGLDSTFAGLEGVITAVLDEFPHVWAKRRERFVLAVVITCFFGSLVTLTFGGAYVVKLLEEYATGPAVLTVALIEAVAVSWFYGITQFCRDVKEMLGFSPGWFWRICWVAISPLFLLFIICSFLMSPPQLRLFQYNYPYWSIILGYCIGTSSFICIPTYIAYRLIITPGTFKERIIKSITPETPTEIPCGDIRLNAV
Description: as §1, §2
Experimental conditions for tests are given in Table 12, and results of tests for representative compounds are given in Tables 13a and 13b.

dopaminergic receptors D2, sequence (P14416 whole entry): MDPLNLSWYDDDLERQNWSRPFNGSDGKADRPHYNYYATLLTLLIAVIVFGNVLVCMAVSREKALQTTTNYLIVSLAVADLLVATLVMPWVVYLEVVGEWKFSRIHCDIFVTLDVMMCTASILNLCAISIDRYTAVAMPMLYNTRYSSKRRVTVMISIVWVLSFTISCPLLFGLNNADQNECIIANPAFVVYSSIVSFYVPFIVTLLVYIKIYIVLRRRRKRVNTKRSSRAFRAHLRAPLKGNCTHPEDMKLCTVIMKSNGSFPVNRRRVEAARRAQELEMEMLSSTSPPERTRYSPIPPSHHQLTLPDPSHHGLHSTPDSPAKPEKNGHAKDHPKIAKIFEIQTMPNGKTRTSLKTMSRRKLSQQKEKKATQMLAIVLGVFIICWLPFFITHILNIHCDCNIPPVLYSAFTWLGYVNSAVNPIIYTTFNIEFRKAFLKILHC

Compound | D2 [%] [1] [%] | D3 [%] [2] [%] | 5-HT1A [%] [3] [%] | 5-HT2A [%] (5-HT2A receptor) | 5-HT6 [%] (5-HT6 receptor) | 5-HT7 [%] (5-HT7 receptor) | SERT [%] [4] [%] | inhibition at 1 µM [1] [%] | inhibition at 1 µM [2] [%] | inhibition at 1 µM [3] [%] | inhibition at 1 µM (5-HT2A receptor) [%] | inhibition at 1 µM (5-HT6 receptor) [%] | inhibition at 1 µM (5-HT7 receptor) [%] | inhibition at 1 µM [4] [%]
3-tert-Butyl-N-[[1-[3-(6-fluoro-1,2-benzoxazol-3-yl)propyl]pyrrolidin-3-yl]methyl]benzenesulphonamide [Compound 249] | 4 | 36 | 23 | 79 | 58 | 87 | 28 |  |  |  |  |  |  | 
4-Fluoro-N-[[1-[3-(6-fluoro-1,2-benzoxazol-3-yl)propyl]azetidin-3-yl]methyl]benzenesulphonamide [Compound 147] | 88 | 74 | 60 | 95 | 86 | 89 | 24 |  |  |  |  |  |  | 
O=S(=O)(NC1CCN(CCCc2noc3cc(F)ccc23)C1)c1ccc(Br)cc1 (stereo not drawn) [Compound 10, 4-Bromo-N-[1-[3-(6-fluoro-1,2-benzoxazol-3-yl)propyl]pyrrolidin-3-yl]benzenesulphonamide] |  |  |  |  |  |  |  | 99 | 49 | 20 | 96 | 85 | 86 | -2
CC(C)(C)c1ccc(S(=O)(=O)NC2CCN(CCCc3noc4cc(F)ccc34)C2)cc1 (stereo not drawn) [Compound 14, 4-tert-Butyl-N-[1-[3-(6-fluoro-1,2-benzoxazol-3-yl)propyl]pyrrolidin-3-yl]benzenesulphonamide] |  |  |  |  |  |  |  | 100 | 90 | 24 | 80 | 82 | 76 | -3
COc1cccc(S(=O)(=O)NC2CCN(CCCc3noc4cc(F)ccc34)C2)c1 (stereo not drawn) [Compound 17, N-[1-[3-(6-Fluoro-1,2-benzoxazol-3-yl)propyl]pyrrolidin-3-yl]-3-methoxybenzenesulphonamide] |  |  |  |  |  |  |  | 80 | 20 | 23 | 94 | 76 | 80 | 52
O=S(=O)(NC1CCN(CCCc2noc3cc(F)ccc23)CC1)c1ccccc1 [Compound 32, N-[1-[3-(6-Fluoro-1,2-benzoxazol-3-yl)propyl]-4-piperidine]benzene-sulphonamide] | 63 | 57 | 37 | 83 | 63 | 92 | 5 |  |  |  |  |  |  | 
Cc1cccc(S(=O)(=O)NC2CCN(CCCc3noc4cc(F)ccc34)CC2)c1 [Compound 33, N-[1-[3-(6-Fluoro-1,2-benzoxazol-3-yl)propyl]-4-piperidine]-3-methyl-benzenesulphonamide] | 54 | 58 | 22 | 97 | 91 | 100 | −4 |  |  |  |  |  |  | 
O=S(=O)(NCC1CN(CCCc2noc3cc(F)ccc23)C1)c1ccc(Cl)cc1 [Compound 136, 4-Chloro-N-[[1-[3-(6-fluoro-1,2-benzoxazol-3-yl)propyl]azetidin-3-yl]methyl]benzenesulphonamide] |  |  |  |  |  |  |  | 62 | 57 | 35 | 82 | 72 | 80 | 9
O=S(=O)(NCC1CN(CCCc2noc3cc(F)ccc23)C1)c1cccc(Cl)c1 [Compound 137, 3-Chloro-N-[[1-[3-(6-fluoro-1,2-benzoxazol-3-yl)propyl]azetidin-3-yl]methyl]benzenesulphonamide] |  |  |  |  |  |  |  | 76 | 50 | 14 | 62 | 14 | 82 | -5
CC(C)(C)c1ccc(S(=O)(=O)NCC2CN(CCCc3noc4cc(F)ccc34)C2)cc1 [Compound 141, 4-tert-Butyl-N-[[1-[3-(6-fluoro-1,2-benzoxazol-3-yl)propyl]azetidin-3-yl]methyl]benzenesulphonamide] |  |  |  |  |  |  |  | 74 | 58 | 9 | 85 | 92 | 80 | -10
Cc1cccc(S(=O)(=O)NCC2CN(CCCc3noc4cc(F)ccc34)C2)c1 [Compound 142, N-[[1-[3-(6-Fluoro-1,2-benzoxazol-3-yl)propyl]azetidin-3-yl]methyl]-3-methyl-benzenesulphonamide] |  |  |  |  |  |  |  | 58 | 45 | 29 | 77 | 37 | 87 | -4
O=S(=O)(NCC1CN(CCCc2noc3cc(F)ccc23)C1)c1cccc(O)c1 [Compound 149, N-[[1-[3-(6-Fluoro-1,2-benzoxazol-3-yl)propyl]azetidin-3-yl]methyl]-3-hydroxy-benzenesulphonamide] |  |  |  |  |  |  |  | 91 | 39 | 82 | 96 | 71 | 113 | 22
O=S(=O)(NCC1CN(CCCc2noc3cc(F)ccc23)C1)c1cc2ccccc2s1 [Compound 153, N-[[1-[3-(6-Fluoro-1,2-benzoxazol-3-yl)propyl]azetidin-3-yl]methyl]-benzothiophene-2-sulphonamide] |  |  |  |  |  |  | 21 | 82 | 61 | 55 | 96 | 80 | 86 | 
O=S(=O)(NCC1CN(CCCc2noc3cc(F)ccc23)C1)c1ccc(Cl)s1 [Compound 155, 5-Chloro-N-[[1-[3-(6-fluoro-1,2-benzoxazol-3-yl)propyl]azetidin-3-yl]methyl]thiophene-2-sulphonamide] |  |  |  |  |  |  |  | 61 | 68 | 42 | 89 | 62 | 82 | -12
CCCc1ccc(S(=O)(=O)NCC2CN(CCCc3noc4cc(F)ccc34)C2)cc1 [Compound 157, N-[[1-[3-(6-Fluoro-1,2-benzoxazol-3-yl)propyl]azetidin-3-yl]methyl]-4-propyl-benzenesulphonamide] |  |  |  |  |  |  |  | 81 | 72 | 61 | 95 | 80 | 93 | 25
